Where no end group is shown, it is not given here.
Experiments:
OH1 SCLC cells = format: cell-based, human; conditions: 72 h
Procedure: Net, proliferation was determined by the CellTiter assay (Promega) and is presented as mean±SD, n=3. […] The cells were fixed and photographed using Nomarski optics. Bar=100 μm. […] Panel E: α3β1 Integrin ligands cooperate with EGF to inhibit OH1 cell proliferation. […] Net proliferation is presented as a percent of the -EGF control (mean±SD, n=3 for treated groups and n=6 for control groups).
Proteins and peptides were immobilized on Nunc Maxisorp 96 well plates by overnight incubation with the proteins or peptides dissolved in 50 μl of sterile Dulbecco's PBS. The supernatant fluid was removed, and the wells were incubated for 30 min. in DPBS containing 1% BSA. OH1 cells (1×10^4/well) were added in RPMI containing 15% FCS and incubated for 72 h at 37° in 5% CO2. For assessing inhibition by soluble proteins or peptides, OH1 cells were grown in suspension in Nunclon 96 well tissue culture plates using the same medium.

HDME cells = assay: HDME cell spreading on coated substrates; format: cell-based, human
Procedure: Spreading was determined microscopically for cells with no additions, in the presence of 10 μM peptide 678, or in the presence of 30 μM of the control peptide 690. Results are presented as mean±SD, n=3. […] The percent spread cells was determined at 60 min.
Adhesion assays of cells other than small cell lung carcinoma (SCLC)-Adhesion was measured on polystyrene or glass substrates coated with peptides or proteins as previously described (Guo et al., 1992). Peptides dissolved in PBS at 0.4 to 50 μM were incubated in polystyrene microliter plate wells overnight at 4° C. The wells were washed 3 times with distilled water. Adsorbed peptide was quantified using the BCA assay (Pierce Chemical) measuring absorbance at 570 and 630 nm as described by the supplier's protocol. The assay for adsorption was calibrated using purified peptide in solution as a standard. After blocking with 1% BSA in Dulbecco's PBS, adhesion assays were performed by adding cells suspended in DMEM (BAE cells) or medium 199 (human cells) containing 1 mg/ml BSA. Cell attachment and spreading was quantified microscopically.

MDA-MB-435 cells = assay: MDA-MB-435 cell chemotaxis in modified Boyden chambers; format: cell-based, human; conditions: peptide in lower well; 7 h
Procedure: FIGS. 10A and 10B display the measurement of MDA-MB-435 cell chemotaxis. Panel A: Dose-dependence for stimulation of MDA-MB-435 cell motility by peptide 678 added to the lower well of a modified Boyden chamber. Cells migrated to the lower surface of an 8 μm pore polycarbonate filter were quantified microscopically after 7 h, mean±SD, n=3 for a representative experiment. […] Chemotaxis of untreated cells (striped bars) or cells treated with 10 nM IGF1 in the upper chamber (solid bars) was determined after 7 h and is presented as mean±S.D., n=3.

Procedure for BAE cells: Direct adhesion of BAE cells to the adsorbed peptides or uncoated substrate (control) are presented as mean±SD, n=3. […] Two flasks of BAE cells were grown to confluence. One flask was harvested and replated in fresh medium at 25% confluency. Fresh medium was added at the same time to the second flask. After 16 h, cells from both flasks were dissociated using EDTA and adhesion was measured on substrates coated with 40 μg/ml TSP1, 10 μg/ml vitronectin, 20 μg/ml plasma fibronectin, or 5 μg/ml type I collagen. The percent spread cells after 60 min is presented as mean±SD, n=3 for a representative experiment.
Results are expressed as percent of the response for untreated cells, mean±S.D., n=3.

Sequence: FQGVLQNVRFVF [Peptide 678]
- IC50 (OH1 SCLC cells): 6 µM
- percent spread HDME cells on immobilized substrate (HDME cells; cells from sparse culture): 28%
- percent spread HDME cells on immobilized substrate (HDME cells; cells harvested from a confluent monolayer): No spreading
- inhibition of BAE cell spreading on fibronectin or vitronectin substrates (BAE cells): did not inhibit
- inhibition of BAE spreading on fibronectin (BAE cells; 30 μM (FIG. 12)): did not inhibit
- inhibition of density-dependent BAE spreading on intact TSP1 and the TSP1 peptide (BAE cells; peptide added in solution): inhibited
- endothelial cell attachment on immobilized peptide (BAE cells; peptides adsorbed at 10 μM (FIG. 11A)): attached specifically
- concentration of maximal chemotactic response (MDA-MB-435 cells): 10 µM

Source: patent US8114406B2, “Peptides and their utility in modulation of behavior of cells expressing α3β1 integrins” (The United States of America as represented by the …, priority 1999, dated 2012)
